According to ChEMBL document CHEMBL1201862, “PubChem BioAssay data set” (2004):
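Results reflect a 48-hour exposure of cells in 96-well plates to compound at five concentrations. Abbreviation: GI50, concentration required for 50% inhibition of growth.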 Calls of active or inactive are those of the source. No stated cut-off is given here; in the data, active = GI50 up to about 1.1 µM and inactive = higher.

Tests used:
Test in all cases: inhibition of tumour cell growth, NCI panel, 48 h
SK-MEL-5 = system: SK-MEL-5
SF-539 = system: SF-539
MOLT-4 = system: MOLT-4
NCI-H522 = system: NCI-H522
OVCAR-5 = system: OVCAR-5
M14 = system: M14
HCT-15 = system: HCT-15
IGROV-1 = system: IGROV-1
KM12 = system: KM12
COLO 205 = system: COLO 205
RXF 393 = system: RXF 393
NCI-H460 = system: NCI-H460
SNB-75 = system: SNB-75
HOP-62 = system: HOP-62
786-0 = system: 786-0
SK-OV-3 = system: SK-OV-3
CAKI-1 = system: CAKI-1
HCC 2998 = system: HCC 2998
DU-145 = system: DU-145
MDA-MB-435 = system: MDA-MB-435

Measured: GI50

C=CCNC(=S)N1c2ccccc2NC(=O)CC1C (stereo not given)
> 100 µM: HCT-15
inactive: SK-MEL-5 > 100 µM | SF-539 > 100 µM | MOLT-4 > 100 µM | NCI-H522 > 100 µM | OVCAR-5 > 100 µM | M14 > 100 µM | IGROV-1 > 100 µM | KM12 > 100 µM | COLO 205 > 100 µM | RXF 393 > 100 µM | NCI-H460 > 100 µM | SNB-75 54.6 µM | HOP-62 > 100 µM | 786-0 > 100 µM

N=C(N)N/N=C(/CCN1CCCC1)CC(c1ccccc1)c1c(O)c2ccccc2oc1=O (stereo not given)
inactive: SF-539 > 100 µM | NCI-H522 > 100 µM | SK-OV-3 > 100 µM | M14 > 100 µM | CAKI-1 > 100 µM | IGROV-1 > 100 µM | COLO 205 > 100 µM | RXF 393 > 100 µM | SNB-75 > 100 µM | HCC 2998 > 100 µM | HOP-62 > 100 µM | 786-0 > 100 µM

N#CC(C(=O)C(=O)Nc1ccc(Cl)c(Cl)c1)c1ccc(Cl)cc1 (stereo not given)
32.5 µM: HCT-15
inactive: SK-MEL-5 74.8 µM | SF-539 > 100 µM | MOLT-4 64.7 µM | NCI-H522 25.2 µM | SK-OV-3 > 100 µM | OVCAR-5 > 100 µM | M14 > 100 µM | CAKI-1 > 100 µM | IGROV-1 > 100 µM | KM12 > 100 µM | COLO 205 45.1 µM | RXF 393 > 100 µM | NCI-H460 32.1 µM | SNB-75 > 100 µM | HCC 2998 51.9 µM | HOP-62 > 100 µM | 786-0 41 µM

Cc1[nH]c2ccccc2c1CC/C(=N\Nc1ccccc1)c1ccccc1
inactive: SK-MEL-5 > 100 µM | SF-539 > 100 µM | MOLT-4 > 100 µM | SK-OV-3 > 100 µM | OVCAR-5 > 100 µM | M14 > 100 µM | CAKI-1 > 100 µM | IGROV-1 > 100 µM | KM12 > 100 µM | RXF 393 > 100 µM | NCI-H460 > 100 µM | SNB-75 28.7 µM | HCC 2998 > 100 µM | HOP-62 > 100 µM | 786-0 > 100 µM
> 100 µM: HCT-15

Cc1ccc(NC(=O)SCCC(=O)O)cc1NC(=O)SCCC(=O)O
inactive: SF-539 > 100 µM | MOLT-4 > 100 µM | NCI-H522 > 100 µM | OVCAR-5 > 100 µM | M14 > 100 µM | CAKI-1 > 100 µM | IGROV-1 > 100 µM | KM12 > 100 µM | COLO 205 > 10 µM | RXF 393 > 100 µM | NCI-H460 > 100 µM | HCC 2998 > 100 µM | HOP-62 > 100 µM | 786-0 > 100 µM
> 100 µM: HCT-15

CCNC(=O)O/N=C1/C=C2CC[C@@H]3C(CC[C@@]4(C)C3CC[C@@H]4OC(=O)NCC)[C@@]2(C)CC1 (stereo not given in full)
inactive: SK-MEL-5 3.44 µM | SF-539 4.32 µM | MOLT-4 2.36 µM | NCI-H522 1.95 µM | SK-OV-3 3.68 µM | OVCAR-5 6.78 µM | M14 2.96 µM | CAKI-1 4.26 µM | IGROV-1 7.5 µM | KM12 2.54 µM | COLO 205 2.44 µM | RXF 393 1.62 µM | NCI-H460 3.46 µM | SNB-75 2.09 µM | HCC 2998 4.3 µM | HOP-62 11.4 µM | 786-0 3.23 µM
2.77 µM: HCT-15

CCOc1c(Cc2ccccc2)c(=O)n2c3ccccc3n3c(=O)n(C)c(=O)c1c23
> 100 µM: HCT-15
inactive: SK-MEL-5 > 100 µM | SF-539 > 100 µM | MOLT-4 > 100 µM | SK-OV-3 > 100 µM | OVCAR-5 > 100 µM | M14 > 100 µM | CAKI-1 > 100 µM | IGROV-1 > 100 µM | KM12 > 100 µM | COLO 205 > 100 µM | RXF 393 > 100 µM | NCI-H460 > 100 µM | SNB-75 27.2 µM | HCC 2998 > 100 µM | HOP-62 > 100 µM | 786-0 > 100 µM

CCCCCCCCCOC(=S)NCCCCC
inactive: SK-MEL-5 21.5 µM | SF-539 20.8 µM | MOLT-4 19 µM | NCI-H522 20.3 µM | SK-OV-3 29.4 µM | M14 28.6 µM | CAKI-1 27.8 µM | IGROV-1 38.4 µM | RXF 393 19.9 µM | NCI-H460 28 µM | SNB-75 42.3 µM | HCC 2998 34.4 µM | HOP-62 26.4 µM | 786-0 35.6 µM
23.9 µM: HCT-15

Cn1c(=O)c2nc(-c3ccc(Cl)cc3)oc2n(C)c1=O
> 100 µM: HCT-15
inactive: SK-MEL-5 > 100 µM | SF-539 > 100 µM | MOLT-4 > 100 µM | NCI-H522 > 100 µM | OVCAR-5 > 100 µM | M14 > 100 µM | CAKI-1 > 100 µM | KM12 > 100 µM | RXF 393 > 100 µM | NCI-H460 > 100 µM | SNB-75 > 100 µM | HCC 2998 > 100 µM | 786-0 > 100 µM

OC[C@@H]1CC#C/C=C\C#CC[C@@H]1CO
inactive: SK-MEL-5 > 100 µM | SF-539 > 100 µM | MOLT-4 > 100 µM | SK-OV-3 > 100 µM | OVCAR-5 > 100 µM | M14 > 100 µM | CAKI-1 > 100 µM | IGROV-1 > 100 µM | KM12 > 100 µM | COLO 205 > 100 µM | RXF 393 > 100 µM | HCC 2998 > 100 µM | HOP-62 > 100 µM | 786-0 > 100 µM
> 100 µM: HCT-15

Cc1ccc(S(=O)OC2c3ccccc3Cc3ccccc32)cc1 (stereo not given)
inactive: SK-MEL-5 19.3 µM | SF-539 18.5 µM | MOLT-4 19.2 µM | NCI-H522 13.9 µM | SK-OV-3 19.5 µM | OVCAR-5 15.6 µM | M14 18.6 µM | CAKI-1 17.3 µM | IGROV-1 21.6 µM | KM12 21.2 µM | COLO 205 17.5 µM | RXF 393 13.3 µM | NCI-H460 22.3 µM | SNB-75 17.9 µM | HCC 2998 19.1 µM | HOP-62 17.5 µM | 786-0 21.7 µM
19.9 µM: HCT-15

O=c1cccccc1NCCCCCCCNc1cccccc1=O
35.2 µM: HCT-15
inactive: SF-539 91.4 µM | MOLT-4 17 µM | NCI-H522 13.8 µM | SK-OV-3 42.6 µM | OVCAR-5 77.1 µM | M14 23 µM | CAKI-1 45.6 µM | IGROV-1 54.2 µM | KM12 56.4 µM | COLO 205 40.1 µM | RXF 393 7.74 µM | NCI-H460 29.7 µM | SNB-75 95.9 µM | HOP-62 > 100 µM | 786-0 > 100 µM

COC(=O)NN1C(C)=C(C(=O)OC)C2(C#N)C(C(=O)OC)=C(C)N(NC(=O)OC)C12N (stereo not given)
> 100 µM: HCT-15
inactive: SF-539 > 100 µM | MOLT-4 > 100 µM | NCI-H522 > 100 µM | SK-OV-3 > 100 µM | OVCAR-5 > 100 µM | M14 > 100 µM | CAKI-1 > 100 µM | IGROV-1 > 100 µM | COLO 205 > 100 µM | NCI-H460 > 100 µM | HCC 2998 > 100 µM | HOP-62 > 100 µM | 786-0 > 100 µM

Cc1cc(C)c(N[S+]([O-])c2cccc(C(F)(F)F)c2)c(C)c1 (stereo not given)
> 100 µM: HCT-15
inactive: SF-539 > 100 µM | MOLT-4 > 100 µM | OVCAR-5 > 100 µM | M14 > 100 µM | KM12 > 100 µM | COLO 205 > 100 µM | RXF 393 > 100 µM | NCI-H460 > 100 µM | HOP-62 > 100 µM | DU-145 > 100 µM | MDA-MB-435 > 100 µM | 786-0 > 100 µM

Cc1ccc(Oc2ccccc2N)cc1
19.5 µM: HCT-15
inactive: SK-MEL-5 7.89 µM | SF-539 16.7 µM | MOLT-4 15.4 µM | SK-OV-3 > 100 µM | OVCAR-5 40.6 µM | M14 33.5 µM | IGROV-1 50.4 µM | KM12 33.3 µM | COLO 205 6.07 µM | RXF 393 25.9 µM | NCI-H460 37.8 µM | SNB-75 16 µM | HCC 2998 15.4 µM | HOP-62 39 µM | 786-0 21.2 µM

O=c1oc2c3ccc4ccccc4c3n(CCN3CCCCC3)c2c2ccccc12
38.2 µM: HCT-15
inactive: SK-MEL-5 40.7 µM | SF-539 17.1 µM | MOLT-4 2.46 µM | NCI-H522 17.9 µM | SK-OV-3 43.1 µM | OVCAR-5 > 100 µM | M14 20 µM | CAKI-1 48.2 µM | IGROV-1 > 55.2 µM | KM12 79.1 µM | COLO 205 14.8 µM | RXF 393 14.8 µM | NCI-H460 4.12 µM | SNB-75 4.98 µM | HCC 2998 80.5 µM | HOP-62 21.3 µM | 786-0 10.3 µM

C/N=C(\SC)N(C)c1nc(=[N+](C)C)ss1.[O-][Cl+3]([O-])([O-])[O-]
inactive: SK-MEL-5 7.21 µM | MOLT-4 9.53 µM | NCI-H522 13.2 µM | SK-OV-3 > 100 µM | OVCAR-5 > 100 µM | M14 > 100 µM | CAKI-1 52 µM | IGROV-1 > 100 µM | KM12 > 100 µM | RXF 393 > 100 µM | SNB-75 3.81 µM | HCC 2998 > 100 µM | HOP-62 > 100 µM | 786-0 > 100 µM
> 100 µM: HCT-15

CC1C(=O)N(C)C2(CO)C(=O)O[C@H](C)C12O (stereo not given in full)
inactive: SK-MEL-5 > 100 µM | SF-539 > 100 µM | MOLT-4 > 100 µM | SK-OV-3 > 100 µM | OVCAR-5 > 100 µM | M14 > 100 µM | CAKI-1 > 100 µM | IGROV-1 > 100 µM | KM12 > 100 µM | COLO 205 > 100 µM | RXF 393 > 100 µM | HCC 2998 > 100 µM | HOP-62 > 100 µM | 786-0 > 100 µM
> 100 µM: HCT-15
